# Read-outs that look alike come from different tables or passages of the source.
# Legend:
# in vitro [1] = type: cell-based; details: human
# Procedure: The degree of hemolysis induced by dUSTBβPs was determined by the amount of hemoglobin released from human erythrocytes upon incubation. Fresh human blood supplied by a commercial vendor was obtained from normal healthy volunteers following informed consent. The agent of interest was serially diluted in vehicle consisting of phosphate-buffered saline (PBS), saline, 5% glucose, or equivalents. The samples were incubated with gentle mixing at 37°C for 45 min and were subsequently centrifuged. The supernatant (plasma layer) was removed and centrifuged once more to completely pellet the cells. The plasma layer was diluted with Drabkin’s reagent and analyzed at a wavelength of 540 nm. Experiments were conducted in triplicates, and a calibration curve prepared by diluting blood (after addition of vehicle) was used to quantitate heme release. The vehicle or Triton X-100 were used as negative or positive controls, respectively.
# P. aeruginosa PAO1 = type: cell-based, Pseudomonas aeruginosa; details: PAO1, 18 h
# Procedure: (§1) The in vitro antibacterial activities of dUSTBβPs were evaluated using microbroth dilution susceptibility test, in accordance with the Clinical and Laboratory Standards Institute (CLSI) guidelines ([Clinical and Laboratory Standards Institute, 2019]). Overnight-grown bacterial culture diluted in saline to 0.5 McFarland turbidity was successively diluted 1:50 in Mueller-Hinton broth (MHB) to achieve a final concentration of 5 × 10^5 colony forming units (CFU)/mL for inoculation. The agents were serially diluted 2-fold in MHB on a 96-well plate; mixed with bacterial inoculum of equal volumes, and incubated at 37°C for 18 h. Antibacterial activity was determined by the minimum inhibitory concentration (MIC), which is the lowest concentration of agent required for inhibition of visible bacterial growth in the form of turbidity. Confirmation of turbidity was done using an EMax Plus microplate reader (Molecular Devices, United States) at a wavelength of 590 nm. Wells comprising MHB alone or MHB inoculated with bacteria were used as negative or positive controls, respectively.
# A. baumannii ATCC 17978 = type: cell-based, Acinetobacter baumannii; details: ATCC 17978, 18 h
# Procedure: as §1
# E. coli ATCC 25922 = type: cell-based, Escherichia coli; details: ATCC 25922, 18 h
# Procedure: as §1
# [2] = tested on: MDR clinical isolates of A. baumannii; type: cell-based, Acinetobacter baumannii; details: MDR clinical isolates of, 18 h
# Procedure: (§2) The adjuvant activities of dUSTBβPs were evaluated using checkerboard assay as previously described ([Berry et al., 2019]). Overnight-grown bacterial culture diluted in saline to 0.5 McFarland turbidity was successively diluted 1:50 in MHB to achieve a final concentration of 5 × 10^5 CFU/mL for inoculation. The antibiotic and adjuvant were serially diluted 2-fold along the x-axis and y-axis, respectively, resulting in varying concentrations of both agents in each well. Subsequently, the 96-well plate was incubated with equal volumes of bacterial inoculum at 37°C for 18 h. Confirmation of turbidity was done using an EMax Plus microplate reader (Molecular Devices, United States) at a wavelength of 590 nm. Wells comprising MHB alone or in the presence of bacterial cells were used as negative or positive controls, respectively. Fractional inhibitory concentration index (FICI) is determined by adding the FICs of both antibiotic and adjuvant. The FIC of the antibiotic is calculated by dividing the MIC of the antibiotic in the presence of the adjuvant by the MIC of the antibiotic alone. Similarly, the FIC of the adjuvant is calculated by dividing the MIC of the adjuvant in the presence of the antibiotic by the MIC of the adjuvant alone. FICI ≤ 0.5, 0.5 < x ≤ 4, and >4 were deemed synergistic, additive, and antagonistic, respectively ([Meletiadis et al., 2010]).
# in vitro [3] = details: human, plasma
# Procedure: Stability of dUSTBβP 3 was evaluated in human plasma. […] The supernatant was analyzed by HPLC-tandem mass spectrometry using selected reaction monitoring. The % compound remaining was determined by comparing peak areas at different time points to time zero. Assuming first-order kinetics, the half-life was extrapolated from the slope of the initial linear range of the logarithmic curve of compound remaining over time. Experiments were performed in duplicates, and the reference compounds include propantheline and propoxycaine.
# [4] = tested on: wild-type P. aeruginosa PAO1; test: microbe, parasite or virus in culture; type: cell-based, Pseudomonas aeruginosa; details: PAO1
# Text: as §2, with “Overnight-grown” for “The adjuvant activities of dUSTBβPs were evaluated using checkerboard assay as previously described ([Berry et al., 2019]). Overnight-grown”, “Subsequently, the 96-well plate was incubated with equal volumes of bacterial inoculum at 37°C for 18 h.” left out, “alone.” for “alone. FICI ≤ 0.5, 0.5 < x ≤ 4, and >4 were deemed synergistic, additive, and antagonistic, respectively ([Meletiadis et al., 2010]).”
# [5] = tested on: wild-type A. baumannii ATCC 17978; test: Checkerboard assay; type: cell-based, Acinetobacter baumannii; details: ATCC 17978
# Text: as §2, with “Overnight-grown” for “The adjuvant activities of dUSTBβPs were evaluated using checkerboard assay as previously described ([Berry et al., 2019]). Overnight-grown”, “Subsequently, the 96-well plate was incubated with equal volumes of bacterial inoculum at 37°C for 18 h.” left out, “alone.” for “alone. FICI ≤ 0.5, 0.5 < x ≤ 4, and >4 were deemed synergistic, additive, and antagonistic, respectively ([Meletiadis et al., 2010]).”
# [6] = tested on: wild-type E. coli ATCC 25922; test: microbe, parasite or virus in culture; type: cell-based, Escherichia coli; details: ATCC 25922
# Procedure: as §2
# [7] = tested on: MDR P. aeruginosa clinical isolates; test: Resistance phenotype (MICs of antibiotics) of MDR clinical isolates; type: cell-based, Pseudomonas aeruginosa; details: Pseudomonas aeruginosa
# [8] = tested on: MDR A. baumannii clinical isolates; test: as above; type: cell-based, Acinetobacter baumannii; details: Acinetobacter baumannii, LAC-4; read-out: MIC
# [9] = tested on: MDR E. coli clinical isolates; test: as above; type: cell-based, Escherichia coli; details: Escherichia coli, read-out: MIC
# [10] = tested on: MDR K. pneumoniae clinical isolates; test: as above; type: cell-based, Klebsiella pneumoniae; details: Klebsiella pneumoniae, read-out: MIC
# [11] = tested on: MDR E. cloacae clinical isolates; test: as above; type: cell-based, Enterobacter cloacae; details: Enterobacter cloacae, read-out: MIC
# [12] = antibiotic with dUSTBβP 3 at 8 μg/mL
structure (smiles),measurement,setting,value
CCCCCCCC(=O)NC(CCCCN)CC(=O)NCCCN(CCCNC(=O)CC(CCCCN)NC(=O)CCCCCCC)CC(=O)NC(CCCCN)CC(N)=O (stereo not drawn) [dUSTBβP 2],"hemolysis at 45 min, 1.5625 µM",in vitro [1],3.33 ± 0.12%
same,"hemolysis at 45 min, 3.125 µM",in vitro [1],3.28 ± 0.21%
same,"hemolysis at 45 min, 6.25 µM",in vitro [1],3.23 ± 0.11%
same,"hemolysis at 45 min, 12.5 µM",in vitro [1],3.22 ± 0.2%
same,"hemolysis at 45 min, 25 µM",in vitro [1],3.29 ± 0.14%
same,"hemolysis at 45 min, 50 µM",in vitro [1],3.24 ± 0.15%
same,"hemolysis at 45 min, 100 µM",in vitro [1],3.26 ± 0.1%
same,"hemolysis at 45 min, 200 µM",in vitro [1],3.21 ± 0.13%
same,MIC,P. aeruginosa PAO1,>128 µg/mL
same,MIC,A. baumannii ATCC 17978,>128 µg/mL
same,MIC,E. coli ATCC 25922,>128 µg/mL
CCCCCCCC(=O)N[C@@H](CCCNC(=N)N)C(=O)NCCCN(CCCNC(=O)[C@H](CCCNC(=N)N)NC(=O)CCCCCCC)CC(=O)N[C@@H](CCCNC(=N)N)C(N)=O [di(C8-Arg)-Nbap-Arg-NH2],MIC of compound alone,[2],16 µg/mL
same,"remaining at 2 h, 1 μM",in vitro [3],39.5 ± 7.4%
CC(C)(O/N=C(\C(=O)N[C@@H]1C(=O)N2C(C(=O)[O-])=C(C[n+]3ccccc3)CS[C@H]12)c1csc(N)n1)C(=O)O [Ceftazidime],MICcombo,[4]; [12],2 µg/mL
same,MIC,"[4]; Pseudomonas aeruginosa, 18 h, antibiotic alone (Supplementary Table 7), read-out: MICantibiotic",2 µg/mL
same,MICcombo,[5]; [12],8 µg/mL
same,MIC,"[5]; Acinetobacter baumannii, ATCC17978, 18 h, antibiotic alone (Supplementary Table 7), read-out: MICantibiotic",16 µg/mL
same,MICcombo,[6]; [12],0.063 µg/mL
same,MIC,"[6]; Escherichia coli, ATCC25922, 18 h, antibiotic alone (Supplementary Table 7), read-out: MICantibiotic",0.25 µg/mL
same,MIC,[7]; 259-96196,512 µg/mL
same,MIC,"[7]; 262-101856, read-out: MIC",16 µg/mL
same,MIC,[7]; 264-104354,128 µg/mL
same,MIC,[7]; 91433,1020 µg/mL
same,MIC,"[7]; 114228, read-out: MIC",8 µg/mL
same,MIC,[8],> 16 µg/mL
same,MIC,[9]; 94393 (mcr-1 +),≤ 0.25 µg/mL
same,MIC,[9]; 94474 (mcr-1 +),0.5 µg/mL
same,MIC,[9]; 107115,> 32 µg/mL
same,MIC,[10]; 113250,0.5 µg/mL
same,MIC,[10]; 113254,≤ 0.2 µg/mL
same,MIC,[10]; 116381,8 µg/mL
same,MIC,[11]; 117029,0.5 µg/mL
same,MIC,[11]; 118564,0.5 µg/mL
same,MIC,[11]; 121187,0.5 µg/mL
CCCCCCCC(=O)NC(CCCN)CC(=O)NCCCN(CCCNC(=O)CC(CCCN)NC(=O)CCCCCCC)CC(=O)NC(CCCN)CC(N)=O (stereo not drawn) [dUSTBβP 1],"hemolysis at 45 min, 1.5625 µM",in vitro [1],3.11 ± 0.07%
same,"hemolysis at 45 min, 3.125 µM",in vitro [1],3.12 ± 0.09%
same,"hemolysis at 45 min, 6.25 µM",in vitro [1],3.13%
same,"hemolysis at 45 min, 12.5 µM",in vitro [1],3.16 ± 0.04%
same,"hemolysis at 45 min, 25 µM",in vitro [1],3.12 ± 0.05%
same,"hemolysis at 45 min, 50 µM",in vitro [1],3.17 ± 0.06%
same,"hemolysis at 45 min, 100 µM",in vitro [1],3.35 ± 0.17%
same,"hemolysis at 45 min, 200 µM",in vitro [1],2.26 ± 0.19%
same,MIC,P. aeruginosa PAO1,>128 µg/mL
same,MIC,A. baumannii ATCC 17978,>128 µg/mL
same,MIC,E. coli ATCC 25922,>128 µg/mL

# Reference: article PMC8733726, “Dioctanoyl Ultrashort Tetrabasic β-Peptides Sensitize Multidrug-Resistant Gram-Negative Bacteria to Novobiocin and Rifampicin” (Frontiers in Microbiology, 2021)
